Data: US9243039B2, “Bipartite inhibitors of bacterial RNA polymerase: Sal-target-inhibitor/nucleoside-analog-inhibitor conjugates” (priority 2012, dated 2016)
In brackets after ≈: the same amount, converted by molar mass. *1 amine or outer side, *2 acyl side, *3 side chain or, on linkers, in order; H or OH if unused. Where a SMILES comes first, the peptide text is derived from it. Bridges are numbered along the chain shown (N, C = ends). [ ]: non-standard residue; d: D form. The star is where a group is joined. X6 = CCCCOC(/C=C/C(=O)[*:3])(CO)[C@@H](C)Oc1ccc([C@H](N[*:1])C(=O)[*:2])cc1; X3 = C[C@@H](Oc1ccc([C@H](N[*:1])C(=O)[*:2])cc1)[C@](O)(/C=C/C(=O)[*:3])CO; Pentanoyl(2R-Me,3R-OH,4-Me) = CC(C)[C@@H](O)[C@@H](C)C(=O)*; d(aIle) = CC[C@H](C)[C@@H](N)C(=O)O; d(aThr) = C[C@@H](O)[C@@H](N)C(=O)O; NMeF = CN[C@@H](Cc1ccccc1)C(=O)O

Tests used:
[1] = biological target: Escherichia coli RNAP (Escherichia coli, UniProt P0A8T7+P0A8V2); experiment: Fluorescence-detected RNAP assay, Escherichia coli RNAP; format: biochemical; conditions: fluorescent-detected RNAP assays
Experimental: Fluorescence-detected RNAP assays with Escherichia coli RNAP were performed by a modification of the procedure of Kuhlman et al., 2004 [Kuhlman et al., Anal. Biochem. 324:183-190, 2004]. Reaction mixtures contained (20 μl): […] test compound, 75 nM Escherichia coli RNAP […] holoenzyme, 20 nM 384 by DNA fragment containing the bacteriophage T4 N25 promoter, 100 μM ATP, 100 μM GTP, 100 μM UTP, 100 μM CTP, 50 mM Tris-HCl, pH 8.0, 100 mM KCl, 10 mM MgCl2, 1 mM DTT, 10 μg/ml bovine serum albumin, and 5.5% glycerol. Reaction components other than DNA and NTPs were pre-incubated for 10 min at 37° C. Reactions were carried out by addition of DNA and incubation for 5 min at 37° C., followed by addition of NTPs and incubation for 60 min at 37° C. DNA was removed by addition of 1 μl 5 mM CaCl2 and 2 U DNaseI (Ambion, Inc.), followed by incubation for 90 min at 37° C. RNA was quantified by addition of 100 μl RiboGreen RNA Quantitation Reagent (Invitrogen, Inc.; 1:500 dilution in Tris-HCl, pH 8.0, 1 mM EDTA), followed by incubation for 10 min at 25° C., followed by measurement of fluorescence intensity [excitation wavelength=485 nm and emission wavelength=535 nm; QuantaMaster QM1 spectrofluorometer (PTI, Inc.)].
(§1) Half-maximal inhibitory concentrations (IC50s) were calculated by non-linear regression in SigmaPlot (SPSS, Inc.).

[2] = test system: Escherichia coli D21f2toIC; experiment: Antibacterial activity, broth microdilution, Escherichia coli D21f2tolC; format: cell-based
Text: (§2) Antibacterial activity was quantified using broth microdilution [Clinical and Laboratory Standards Institute (CLSUNCCLS), Methods for Dilution Antimicrobial Susceptibility Tests for Bacteria That Grow Aerobically; Approved Standard, Eighth Edition. CLIS Document M07-A8 (CLIS, Wayne Pa.), 2009]. Assays with Enterobacter cloacae ATCC 13047, Pseudomonas aeruginosa ATCC10145, and Escherichia coli D21f2to1C, employed a starting cell density of 2-5×10^5 cfu/ml, Mueller Hinton II cation adjusted broth (BD Biosciences, Inc.), and an air atmosphere. Assays with Haemophilus influenzae ATCC49247 and Neisseria gonorrhoeae ATCC 19424 employed a starting cell density of 2-5×10^5 cfu/ml, Haemophilus Test Medium broth (Barry et al., 1993) and a 5% CO2/95% air atmosphere. MIC50 was defined as the minimal concentration resulting in ≧50% inhibition of bacterial growth.

[3] = test system: Enterobacter cloacae ATCC 13047; experiment: Antibacterial activity, broth microdilution, Enterobacter cloacae; format: cell-based
Text: as §2

[4] = test system: Sal-resistant mutants; experiment: Cross-resistance of Sal-resistant mutants to other RNAP inhibitors; format: cell-based; conditions: disclosed herein
[5] = test system: Vero E6 ATCC CRL1586; experiment: Cytotoxicity to mammalian cells in culture (CellTiter96); format: cell-based
Text: MICs for mammalian cells (Vero E6) in culture were quantified using CellTiter96 assay (Promega. Inc.; procedures as specified by the manufacturer). Screening data for SalA and SalB (compounds 1 and 2) and representative compounds of this invention (compounds 3-9) are presented in Tables 1-2: […]

[6] = test system: Gram-positive and Gram-negative bacterial RNAP; experiment: Inhibition of bacterial RNAP in vitro (radiochemical RNAP assays); format: biochemical; conditions: in words, disclosed herein
Experimental: Radiochemical RNAP assays with Escherichia coli RNAP and Staphylococcus aureus RNAP were performed as follows: Reaction mixtures contained (10 μl): 0-100 μM test compound, bacterial RNAP holoenzyme [75 nM Escherichia coli RNAP holoenzyme (prepared as in Mukhopadhyay et al., Meths. Enzymol. 371:144-159, 2003) or 75 nM Staphylococcus aureus RNAP core enzyme and 300 nM Staphylococcus aureus σ^A (prepared as in Srivastava et al., Curr. Opin. Microbiol. 14:532-543, 2011)], 20 nM DNA fragment N25-lacUV5-14 [positions −100 to −1 of the bacteriophage T5 N25 promoter followed by positions +1 to +29 of the lacUV5(+10A; +15C) promoter; prepared by PCR amplification of a synthetic nontemplate-strand oligodeoxyribonucleotide], 0.5 mM ApA, 100 μM [α^32P]UTP (0.2 Bq/fmol), 100 μM ATP, and 100 μM GTP in TB (50 mM Tris-HCl, pH 7.9, 100 mM KCl, 10 mM MgCl2, 1 mM DTT, 100 μg/ml bovine serum albumin, and 5% glycerol). […] Products were applied to 7 M urea 15% polyacrylamide (19:1 acrylamide:bisacrylamide) slab gels (Bio-Rad), electrophoresed in TBE (90 mM Tris-borate, pH 8.0, and 2 mM EDTA), and analyzed by storage-phosphor scanning (Typhoon; GE Healthcare, Inc.).
as §1

[7] = test system: Pseudomonas aeruginosa; experiment: Antibacterial activity, broth microdilution, Pseudomonas aeruginosa; format: cell-based; conditions: in words, Gram-negative bacterial pathogen
Text: as §2

[8] = test system: Gram-positive bacterial pathogens; conditions: in words, reported previously (Trischman 1994; Moore 1999); cited from earlier work
[9] = test system: human RNAP I/II/III; experiment: Radiochemical assay with human RNAP I, II and III (HeLaScribe nuclear extract); format: biochemical
Experimental: Radiochemical assays with human RNAP I, II, and III were performed essentially as described [Sawadogo and Roeder, Cell 43:165-75, 1985]. Reaction mixtures contained (20 μl): 0-100 μM test compound, 8 U HeLaScribe Nuclear Extract (Promega, Inc.), 1 μg human placental DNA (Sigma-Aldrich), 400 μM ATP, 400 μM [α^32P]UTP (0.11 Bq/fmol), 400 μM CTP, 400 μM GTP, 50 mM Tris-HCl, pH 8.0, 7 mM HEPES-NaOH, 70 mM (NH4)2SO4, 50 mM KCl, 12 mM MgCl2, 5 mM DTT, 0.1 mM EDTA, 0.08 mM phenylmethylsulfonyl fluoride, and 16% glycerol. Reaction components other than DNA and NTPs were pre-incubated 10 min at 30° C., DNA was added and reaction mixtures were incubated 15 min at 30° C., NTPs were added and reaction mixtures were incubated 60 min at 30° C. Reaction mixtures were spotted on DE81 filter discs (Whatman, Inc.; pre-wetted with water) and incubated 1 min at room temperature. Filters were washed with 3×3 ml Na2HPO4, 2×3 ml water, and 3 ml ethanol, using a filter manifold (Hoefer, Inc.). Filters were placed in scintillation vials containing 10 ml Scintiverse BD Cocktail (Thermo Fisher, Inc.), and radioactivity was quantified by scintillation counting (LS6500; Beckman-Coulter, Inc.).
as §1

[10] = test system: Neisseria gonorrhoeae; experiment: Antibacterial activity, broth microdilution, Neisseria gonorrhoeae; format: cell-based; conditions: in words, Gram-negative bacterial pathogen
Text: as §2

[11] = test system: Haemophilus influenzae; experiment: Antibacterial activity, broth microdilution, Haemophilus influenzae; format: cell-based; conditions: in words, Gram-negative bacterial pathogen
Text: as §2

[12] = minimal concentration resulting in ≧50% inhibition of bacterial growth

Chain of Escherichia coli RNAP (P0A800 whole entry, the tested form may be a part): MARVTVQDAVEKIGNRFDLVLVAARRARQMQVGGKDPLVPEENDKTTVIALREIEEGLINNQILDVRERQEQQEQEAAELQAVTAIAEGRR
Chain of Escherichia coli RNAP (P00579 whole entry, further chain, the tested form may be a part): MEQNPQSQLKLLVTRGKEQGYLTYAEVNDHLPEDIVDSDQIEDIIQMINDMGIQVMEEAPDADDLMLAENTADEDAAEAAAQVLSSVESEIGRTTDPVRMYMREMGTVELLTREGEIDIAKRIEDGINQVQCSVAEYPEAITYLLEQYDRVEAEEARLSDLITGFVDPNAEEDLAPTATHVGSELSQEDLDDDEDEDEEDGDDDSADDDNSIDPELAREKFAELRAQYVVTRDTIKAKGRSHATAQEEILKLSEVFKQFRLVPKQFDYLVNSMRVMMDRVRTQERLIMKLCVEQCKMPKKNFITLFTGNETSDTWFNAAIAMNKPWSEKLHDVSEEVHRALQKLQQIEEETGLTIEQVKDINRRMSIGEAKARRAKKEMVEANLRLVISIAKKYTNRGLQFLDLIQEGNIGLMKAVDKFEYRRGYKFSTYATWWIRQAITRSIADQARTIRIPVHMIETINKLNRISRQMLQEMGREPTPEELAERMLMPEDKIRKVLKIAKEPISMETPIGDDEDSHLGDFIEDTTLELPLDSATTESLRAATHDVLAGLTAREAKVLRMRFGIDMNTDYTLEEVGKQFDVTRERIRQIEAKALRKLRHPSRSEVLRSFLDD
Chain of Escherichia coli RNAP (P0A8V2 whole entry, the tested form may be a part): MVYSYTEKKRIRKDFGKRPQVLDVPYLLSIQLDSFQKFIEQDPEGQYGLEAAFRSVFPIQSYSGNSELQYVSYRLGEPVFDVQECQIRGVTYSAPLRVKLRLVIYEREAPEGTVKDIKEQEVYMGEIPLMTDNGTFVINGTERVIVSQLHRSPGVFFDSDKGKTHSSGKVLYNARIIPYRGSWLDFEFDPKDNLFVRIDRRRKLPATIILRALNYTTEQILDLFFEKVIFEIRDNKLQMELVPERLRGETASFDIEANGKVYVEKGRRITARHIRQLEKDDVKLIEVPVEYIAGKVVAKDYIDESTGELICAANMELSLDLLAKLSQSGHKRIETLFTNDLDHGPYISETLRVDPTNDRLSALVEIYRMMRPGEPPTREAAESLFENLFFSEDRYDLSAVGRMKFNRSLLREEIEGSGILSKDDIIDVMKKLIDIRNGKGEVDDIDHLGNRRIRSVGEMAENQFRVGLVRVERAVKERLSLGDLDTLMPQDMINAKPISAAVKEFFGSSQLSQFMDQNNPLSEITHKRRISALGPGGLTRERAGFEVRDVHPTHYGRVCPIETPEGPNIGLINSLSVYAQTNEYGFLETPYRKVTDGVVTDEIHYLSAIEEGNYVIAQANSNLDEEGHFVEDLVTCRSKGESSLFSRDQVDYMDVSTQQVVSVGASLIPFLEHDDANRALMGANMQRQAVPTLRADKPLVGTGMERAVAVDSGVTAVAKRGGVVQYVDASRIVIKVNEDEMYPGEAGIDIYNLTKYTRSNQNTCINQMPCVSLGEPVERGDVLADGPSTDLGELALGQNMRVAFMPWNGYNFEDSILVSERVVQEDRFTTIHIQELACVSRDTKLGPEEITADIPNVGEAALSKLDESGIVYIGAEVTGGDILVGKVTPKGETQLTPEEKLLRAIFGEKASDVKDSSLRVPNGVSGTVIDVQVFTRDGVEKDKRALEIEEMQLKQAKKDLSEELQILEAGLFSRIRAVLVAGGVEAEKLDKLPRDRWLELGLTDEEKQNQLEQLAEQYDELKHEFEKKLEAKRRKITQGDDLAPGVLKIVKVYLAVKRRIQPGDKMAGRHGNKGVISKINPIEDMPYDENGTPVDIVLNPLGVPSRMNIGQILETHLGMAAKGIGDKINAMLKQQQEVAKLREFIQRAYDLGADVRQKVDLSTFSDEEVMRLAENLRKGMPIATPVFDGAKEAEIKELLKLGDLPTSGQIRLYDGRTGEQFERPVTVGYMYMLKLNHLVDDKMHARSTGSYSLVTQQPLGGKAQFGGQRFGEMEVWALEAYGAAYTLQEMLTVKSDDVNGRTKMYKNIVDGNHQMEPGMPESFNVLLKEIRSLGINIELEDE
Chain of Escherichia coli RNAP (P0A8T7 whole entry, the tested form may be a part): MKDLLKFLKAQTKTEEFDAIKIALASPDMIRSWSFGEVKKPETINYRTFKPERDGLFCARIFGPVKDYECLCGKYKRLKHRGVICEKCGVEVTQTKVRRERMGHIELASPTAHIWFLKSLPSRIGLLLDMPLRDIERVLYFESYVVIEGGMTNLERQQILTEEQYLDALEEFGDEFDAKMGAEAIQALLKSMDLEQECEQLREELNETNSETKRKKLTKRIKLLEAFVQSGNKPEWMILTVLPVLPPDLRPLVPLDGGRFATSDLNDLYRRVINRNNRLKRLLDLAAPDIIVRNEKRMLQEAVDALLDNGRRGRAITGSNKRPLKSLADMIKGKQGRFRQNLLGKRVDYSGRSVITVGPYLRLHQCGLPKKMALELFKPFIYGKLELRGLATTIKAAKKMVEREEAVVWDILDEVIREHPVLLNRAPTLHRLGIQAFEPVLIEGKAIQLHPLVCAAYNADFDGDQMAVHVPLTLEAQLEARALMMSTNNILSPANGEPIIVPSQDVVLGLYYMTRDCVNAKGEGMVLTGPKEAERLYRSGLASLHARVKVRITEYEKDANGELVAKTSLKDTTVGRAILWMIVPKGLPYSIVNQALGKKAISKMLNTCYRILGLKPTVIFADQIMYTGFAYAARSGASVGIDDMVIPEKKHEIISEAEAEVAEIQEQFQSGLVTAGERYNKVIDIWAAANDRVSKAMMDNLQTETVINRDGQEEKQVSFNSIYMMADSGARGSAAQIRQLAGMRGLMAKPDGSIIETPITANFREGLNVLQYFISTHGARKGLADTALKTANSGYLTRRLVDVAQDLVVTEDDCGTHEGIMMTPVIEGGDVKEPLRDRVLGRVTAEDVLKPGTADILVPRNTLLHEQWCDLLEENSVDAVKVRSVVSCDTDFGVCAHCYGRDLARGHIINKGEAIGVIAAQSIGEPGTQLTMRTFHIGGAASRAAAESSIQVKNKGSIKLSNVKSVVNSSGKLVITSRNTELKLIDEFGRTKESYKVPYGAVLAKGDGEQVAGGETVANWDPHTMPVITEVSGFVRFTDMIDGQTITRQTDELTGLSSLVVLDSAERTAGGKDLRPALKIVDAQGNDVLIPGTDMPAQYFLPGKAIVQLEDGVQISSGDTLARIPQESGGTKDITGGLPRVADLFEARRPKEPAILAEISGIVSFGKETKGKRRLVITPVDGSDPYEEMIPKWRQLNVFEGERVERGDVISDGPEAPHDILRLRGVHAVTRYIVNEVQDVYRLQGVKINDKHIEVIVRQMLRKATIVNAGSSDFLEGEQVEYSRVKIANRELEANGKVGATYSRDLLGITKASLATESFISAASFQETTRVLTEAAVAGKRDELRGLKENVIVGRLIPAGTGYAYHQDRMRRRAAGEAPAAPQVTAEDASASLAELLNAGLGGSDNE
Chain of Escherichia coli RNAP (P0A7Z4 whole entry, further chain, the tested form may be a part): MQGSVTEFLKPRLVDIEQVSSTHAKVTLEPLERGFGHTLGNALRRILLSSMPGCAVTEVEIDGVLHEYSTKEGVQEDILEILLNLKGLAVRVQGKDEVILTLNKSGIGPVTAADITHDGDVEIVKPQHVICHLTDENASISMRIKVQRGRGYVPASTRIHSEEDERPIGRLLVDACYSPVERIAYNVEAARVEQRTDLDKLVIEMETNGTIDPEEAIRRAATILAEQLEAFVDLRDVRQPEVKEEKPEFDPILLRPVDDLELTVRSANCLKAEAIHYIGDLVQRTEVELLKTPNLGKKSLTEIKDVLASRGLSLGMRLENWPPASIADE

CCCCOC1(CO)/C=C/C(=O)NCC(=O)OC[C@@H]2NC(=O)[C@@H]([C@@H](C)O)NC(=O)[C@H](Cc3ccccc3)N(C)C(=O)[C@@H](NC(=O)[C@@H]([C@@H](C)CC)NC(=O)[C@@H](NC(=O)[C@H](C)[C@H](O)C(C)C)[C@@H](C)OC2=O)c2ccc(cc2)O[C@@H]1C (stereo partly drawn) [Sal-OBu B (5B)] ({Pentanoyl(2R-Me,3R-OH,4-Me)}-T[d(aIle)][X6][NMeF][d(aThr)]S; ester 1-C; linker 3-6 via G)
IC50 [1]: > 25000 nM

CC[C@H](C)[C@H]1NC(=O)[C@@H](NC(=O)[C@H](C)[C@H](O)C(C)C)[C@@H](C)OC(=O)[C@@H]2COC(=O)CNC(=O)/C=C/[C@](O)(CO)[C@@H](C)Oc3ccc(cc3)[C@H](NC1=O)C(=O)N(C)[C@@H](Cc1ccccc1)C(=O)N[C@H]([C@@H](C)O)C(=O)N2 [Sal-OH (4)] ({Pentanoyl(2R-Me,3R-OH,4-Me)}-T[d(aIle)][X3][NMeF][d(aThr)]S; ester 1-C; linker 3-6 via G)
MIC50 ([2]; Escherichia coli, D21F2TOIC, read-out: MIC50 Escherichia coli D21f2toIC): 0.78 µg/mL (≈ 0.751 µM) | IC50 [1]: 2000 nM | MIC50 ([3]; Enterobacter cloacae, ATCC13047, minimal concentration resulting in ≧50% inhibition of bacterial growth): 25 µg/mL (≈ 24.1 µM)

CNC(=O)[C@@H](C)[C@H]1C(=O)/C(=C(O)/C=C/C(C)=C/[C@@H](C)[C@H]2O[C@@]3(C)O[C@H](C=C[C@@]34CO4)[C@@H]2C)C(=O)N1[C@@H]1CC[C@H](O)[C@H](C)O1 [streptolydigin]
cross-resistance of Sal-resistant mutants to the compound [4]: do not exhibit cross-resistance

lipiarmycin
cross-resistance of Sal-resistant mutants to the compound [4]: do not exhibit cross-resistance

myxopyronin
cross-resistance of Sal-resistant mutants to the compound [4]: do not exhibit cross-resistance

salinamide B [SalB (2)]
MIC50 Escherichia coli D21f2toIC [2, 12]: 0.098 µg/mL | inhibition of growth of mammalian cells in culture ([5]; in words): do not detectably inhibit growth | MIC50 Vero E6 ATCC CRL1586 ([5]; mammalian cells in culture): >100 µg/mL | inhibition of Gram-positive and Gram-negative bacterial RNAP in vitro [6]: inhibits | antibacterial activity against Pseudomonas aeruginosa [7]: exhibit antibacterial activity | antibacterial activity against Gram-positive bacterial pathogens [8]: exhibit antibacterial activity | IC50 [9]: > 100000 nM | inhibition of human RNAP I, II, and III ([9]; in words): do not detectably inhibit | IC50 [1]: 1000 nM | antibacterial activity against Neisseria gonorrhoeae [10]: exhibit antibacterial activity | antibacterial activity against Haemophilus influenzae [11]: exhibit antibacterial activity | antibacterial activity against Enterobacter cloacae ([3]; in words, Gram-negative bacterial pathogen): exhibit antibacterial activity | MIC50 Enterobacter cloacae ATCC 13047 [3, 12]: 6.25 µg/mL
